In US6916937B2, “Carbohydrate prodrugs of fluorooxindoles” (Bristol-Myers Squibb Company, priority 2003, dated 2005):

Tests used:
[1] = test system: cloned mammalian (mSlo or hSlo) BK channels; assay: Increase of BK-mediated outward current in Xenopus oocytes, two-electrode voltage clamp; format: cell-based; settings: 10 μM; at least 5 oocytes; mSlo or hSlo expressed in Xenopus oocytes
Description: (§1) The ability of the compound of Formula II to open BK channels and increase whole-cell outward (K^+) BK-mediated currents was assessed under voltage-clamp conditions by determining their ability to increase cloned mammalian (mSlo or hSlo) BK—mediated outward current heterologously expressed in Xenopus oocytes [Butler, A., et al., Science, 261, pp. 221-224 (1993); and Dworetzky, S. I., et al., Mol. Brain Res., 27, pp.189-193 (1994)]. The two BK constructs employed represent nearly structurally identical homologous proteins, and have proven to be pharmacologically identical in our tests. To isolate BK current from native (background, non-BK) current, the specific and potent BK channel-blocking toxin iberiotoxin (IBTX) [Galvez, A., et al., J. Biol. Chem, 265, pp.11083-11090 (1990)] was employed at a supramaximal concentration (50 nM). The relative contribution of BK channels current to total outward current was determined by subtraction of the current remaining in the presence of IBTX (non-BK current) from the current profiles obtained in all other experimental conditions (control, drug, and wash). […] The compound of Formula II was shown in at least 5 oocytes at a concentration of 10 μM to increase BK current to 170% of control of IBTX-sensitive current. […]

[2] = test system: non-BK native currents in the oocytes; assay: Effect on non-BK native currents in oocytes (current remaining with IBTX); format: cell-based, Xenopus; settings: at the tested concentration
Description: as §1

[3] = test system: focal cerebral ischemia (MCAO) in the Wistar rat; assay: Focal stroke model, permanent MCA and CCA occlusion; format: in vivo; settings: 0.3 mg/kg i.v. single bolus two hours after MCA occlusion; infarct measured 24 hours after MCAO
Description: To determine the ability of the compounds of the present invention to reduce cell loss resulting from neuronal ischemia, a standard focal cerebral ischemia is induced by permanent occlusion of the left middle cerebral artery (MCA) and common carotid artery (CCA) with one hour occlusion of the right CCA in the Wistar rat. The surgeries are performed using the sub-temporal approach of A. Tamura, et al., J. Cereb. Blood Flow Metab., 1, pp. 53-60, (1981) and its modifications [K. Osborne, et al., J. Neurol Neurosurg. Psychiatry, 50, pp. 402-410 (1987) and S. Menzies, et al., Neurosurgery, 31, pp. 100-107, (1992).]
The compound of Formula II was evaluated in the focal stroke model involving permanent occlusion of the left MCA (MCAO) and CCA (CCAO) and temporary occlusion of the right CCA in the Wistar rat [Gribkoff, et al. Nature Med. 7, pp. 471-477 (2001)]. This procedure results in a reliably large neocortical infarct volume that is measured by means of vital dye exclusion in serial slices through the brain 24 hours after MCAO. In the present test, compounds were administered using an i.v. or i.p. route of administration two hours after occlusion.

[4] = test system: rat traumatic brain injury (TBI) model; settings: Cheney et al. 2001; cited from earlier work

Row | SMILES | BK current, % of control of IBTX-sensitive current [1] | Effect on non-BK native currents in the oocytes [2] | Reduction of cortical infarct volume vs vehicle-treated control [3] | Reduction in edema in regions adjacent to the impact zone [4]
1 | COc1ccc(Cl)cc1C1(F)C(=O)Nc2cc(C(F)(F)F)ccc21 (racemic) [compound of Formula II, 3-(5-chloro-2-methoxyphenyl)-1,3-dihydro-3-fluoro-6-(trifluoromethyl)-2H-indol-2-one] | 170 % of control | did not effect | about 28% | 
2 | COc1ccc(Cl)cc1[C@]1(F)C(=O)Nc2cc(C(F)(F)F)ccc21 [Compound of Formula (S)-II, (S)-3-(5-chloro-2-methoxy-phenyl)-3-fluoro-6-trifluoromethyl-1,3-dihydro-indol-2-one] |  |  |  | significant reductions in edema
